Test [1] addresses T1, rat orexin-1 receptor (Rattus norvegicus, UniProt P56718).
T1 construct: expressed in transfected cells; host or cells: CHO cells (grown under G418 selection)
T1 sequence (P56718 1-416): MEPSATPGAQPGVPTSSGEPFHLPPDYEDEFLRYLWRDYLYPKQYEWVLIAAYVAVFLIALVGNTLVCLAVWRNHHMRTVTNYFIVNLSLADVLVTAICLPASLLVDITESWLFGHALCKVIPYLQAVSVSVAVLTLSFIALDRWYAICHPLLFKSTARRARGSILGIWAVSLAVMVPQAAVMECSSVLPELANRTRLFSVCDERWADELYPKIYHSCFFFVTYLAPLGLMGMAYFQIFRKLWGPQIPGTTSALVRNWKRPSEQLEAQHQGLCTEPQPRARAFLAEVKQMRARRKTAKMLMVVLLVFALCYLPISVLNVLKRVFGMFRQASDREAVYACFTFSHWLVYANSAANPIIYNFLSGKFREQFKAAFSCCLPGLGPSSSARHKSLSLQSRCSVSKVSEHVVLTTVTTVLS
The test is described as follows: FLIPR Ca2+ flux assay, OX1R. The test is classed as cell-based. To be noted: CHO cells expressing rat orexin-1 receptor; agonist 70 pM Ala-6,12 orexin-A. The method, then: (§1) For intracellular calcium measurements, Chinese hamster ovary (CHO) cells expressing the rat orexin-1 receptor or the human orexin-2 receptor, are grown in Iscove's modified DMEM containing 2 mM L-glutamine, […], 1% hypoxanthine-thymidine supplement, 100 U/ml penicillin, 100 μg/ml streptomycin and 10% heat-inactivated fetal calf serum (FCS). The cells are seeded at 20,000 cells/well into Becton-Dickinson black 384-well clear bottom sterile plates coated with poly-D-lysine. All reagents were from GIBCO-Invitrogen Corp. The seeded plates are incubated overnight at 37° C. and 5% CO2. Ala-6,12 human orexin-A as the agonist is prepared as a 1 mM stock solution in 1% bovine serum albumin (BSA) and diluted in assay buffer (HBSS containing 20 mM HEPES, 0.1% BSA and 2.5 mM probenecid, pH7.4) for use in the assay at a final concentration of 70 pM. Test compounds are prepared as 10 mM stock solution in DMSO, then diluted in 384-well plates, first in DMSO, then assay buffer. On the day of the assay, cells are washed 3 times with 100 μl assay buffer and then incubated for 60 min (37° C., 5% CO2) in 60 μl assay buffer containing 1 μM Fluo-4AM ester, 0.02% pluronic acid, and 1% BSA, The dye loading solution is then aspirated and cells are washed 3 times with 100 μl assay buffer, 30 μl of that same buffer is left in each well. Within the Fluorescent Imaging Plate Reader (FLIPR, Molecular Devices), test compounds are added to the plate in a volume of 25 μl, incubated for 5 min and finally 25 μl of agonist is added. Fluorescence is measured for each well at 1 second intervals for 5 minutes and the height of each fluorescence peak is compared to the height of the fluorescence peak induced by 70 pM Ala-6,12 orexin-A with buffer in place of antagonist. […] The intrinsic orexin receptor antagonist activity of a compound which may be used in the present invention may be determined by these assays.

Test [2] deals with T2, human orexin-2 receptor (Homo sapiens, UniProt O43614).
T2 construct: expressed in transfected cells; host or cells: CHO cells (grown under G418 selection)
T2 sequence (O43614 1-444): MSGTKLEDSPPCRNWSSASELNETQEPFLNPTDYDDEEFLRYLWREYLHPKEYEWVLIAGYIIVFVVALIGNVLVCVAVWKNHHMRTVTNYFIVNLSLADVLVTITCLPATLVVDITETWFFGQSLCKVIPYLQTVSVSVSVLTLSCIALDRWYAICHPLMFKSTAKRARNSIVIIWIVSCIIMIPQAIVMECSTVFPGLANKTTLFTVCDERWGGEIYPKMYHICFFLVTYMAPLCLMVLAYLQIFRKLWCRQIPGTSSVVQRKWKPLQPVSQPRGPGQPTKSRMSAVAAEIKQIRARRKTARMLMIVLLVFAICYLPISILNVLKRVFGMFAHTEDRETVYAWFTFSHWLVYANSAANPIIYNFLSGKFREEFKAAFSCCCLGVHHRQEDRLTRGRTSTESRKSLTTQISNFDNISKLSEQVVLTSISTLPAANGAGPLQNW
The test is described as follows: FLIPR Ca2+ flux assay, OX2R. It is filed as cell-based. Particulars: for IC50: CHO cells expressing human orexin-2 receptor, agonist 70 pM Ala-6,12 orexin-A, read-out: OX2R FLIPR; for Fold Selective: OX2R over OX1R, from FLIPR values. How it is done: as §1

In test [1], `COc1ccnc(N2CC[C@@H](C)N(C(=O)c3cccnc3-n3cccn3)CC2)c1` [Example 5, (5R)-1-(4-methoxypyridin-2-yl)-5-methyl-4-{[2-(1H-pyrazol-1-yl)pyridin-3-yl]carbonyl}-1,4-diazepane] had an IC50 of more than 10000 nM. In test [2], the IC50 came to 103 nM and the “Fold Selective” value turned out to be 97.

Regarding `C[C@@H]1CCN(c2cccc(N3CCN(C)C3=O)n2)CCN1C(=O)c1cccc(F)c1-n1nccn1` [Example 14, 1-{6-[(5R)-4-{[3-fluoro-2-(2H-1,2,3-triazol-2-yl)phenyl]carbonyl}-5-methyl-1,4-diazepan-1-yl]pyridin-2-yl}-3-methylimidazolidin-2-one], in test [1], the IC50 came to 3180 nM. In test [2], the IC50 was 58 nM and the “Fold Selective” value is 55.

As to `C[C@@H]1CCN(c2cccc(C(C)(C)O)n2)CCN1C(=O)c1ccccc1-n1nccn1` [Example 20, (R)-(2-(2H-1,2,3-triazol-2-yl)phenyl)(4-(6-(2-hydroxypropan-2-yl)pyridin-2-yl)-7-methyl-1,4-diazepan-1-yl)methanone], the IC50 in test [1] was determined as 1960 nM; in test [2] it was 32 nM. Moreover, the “Fold Selective” value in test [2] worked out at 61.

As to `COc1ccnc(N2CC[C@@H](C)N(C(=O)c3ccccc3-n3nccn3)CC2)c1` [Example 2, (R)-(2-(2H-1,2,3-triazol-2-yl)phenyl)(4-(4-methoxypyridin-2-yl)-7-methyl-1,4-diazepan-1-yl)methanone], the IC50 in test [1] is 2590 nM. Besides, in test [2], the IC50 turned out to be 45 nM and the “Fold Selective” value is given as 57.

On to `COc1ccnc(N2CC[C@@H](C)N(C(=O)c3ccccc3C3(C#N)CC3)CC2)c1` [Example 4, 1-(2-{[(7R)-4-(4-methoxypyridin-2-yl)-7-methyl-1,4-diazepan-1-yl]carbonyl}phenyl)cyclopropane-carbonitrile], for which the IC50 in test [1] is more than 10000 nM; in test [2] it was 163 nM. Also, the “Fold Selective” value in test [2] is recorded as 61.

`C[C@@H]1CCN(c2nccn3nccc23)CCN1C(=O)c1ccccc1-n1nccn1` [Example 24, 4-[(5R)-5-methyl-4-{[2-(2H-1,2,3-triazol-2-yl)phenyl]carbonyl}-1,4-diazepan-1-yl]pyrazolo[1,5-a]pyrazine] had an IC50 in test [1] of more than 10000 nM. In test [2], the IC50 was determined as 113 nM and the “Fold Selective” value is 88.
